Measured values reported in patent US20230135152A1 (ACURASTEM INCORPORATED, priority 2020, published 2023).

Key:
PIKFYVE [1] = target: T1, PIKFYVE (Homo sapiens, UniProt Q9Y2I7); assay: PIKFYVE assay (luciferase ADP-Glo kinase assay, Promega); assay type: biochemical
Description: The activity of Compounds 1-20 was measured using a PIKFYVE assay (luciferase ADP-Glo kinase assay available from Promega Corp. of Madison, Wis.).
The activity of Compounds 39-90 was also measured using a PIKFYVE assay (luciferase ADP-Glo kinase assay available from Promega Corp. of Madison, Wis.).
The activity of Compounds 93-347 was also measured using a PIKFYVE assay (luciferase ADP-Glo kinase assay available from Promega Corp. of Madison, Wis.).

PIKFYVE [2] = target: T1, PIKFYVE; assay: Cell-based Pikfyve inhibition activity assay (EEA1 staining, mean vesicle size in BJ fibroblast cells); details: Table 4, 4 hours treatment, 3 μM Apilimod = 100% inhibition
Description: BJ fibroblast cells were obtained from American Type Cell Culture (ATCC, CRL-2522). The cells were maintained in DMEM (Genesee Scientific, 25-500) supplemented with 10% fetal bovine serum (Genesee Scientific, 25-514) and 1% penicillin-streptomycin (Genesee Scientific, 25-512) at 37° C. in the atmosphere 5% CO2. BJ fibroblasts were plated into black flat clear bottom 96-well plates (Grenier, 655090) at a density of 3×10^3 per well and were allowed to attach in culture for 8-10 hours before drug treatment. Drugs were tested at eleven doses separated by 3 fold from 0.03 nM to 3000 nM in triplicates for 4 hours at 37° C. After 4 hours, treatment media was aspirated and replaced with 4% Paraformaldehyde (Electron Microscopy Science, 15714-S) and cells were fixed at room temperature for 5 minutes. 4% PFA in wells were then discarded and replaced with a blocking buffer consisting of 1×PBS with 0.1% Tween (Sigma-Aldrich, P1754-500), 5% Donkey Serum (Jackson ImmunoResearch, 017-000-121), and 1% BSA (Caisson Labs, B005-50GM) and incubated at room temperature for 30 minutes. Blocking buffer was then discarded and replaced with a primary EEA1 antibody (Fisher Scientific, BD610457) in a 1:1000 dilution and incubated at 4° C. overnight. Following overnight incubation, plates were washed with 1×PBS three times and incubated with secondary antibody Donkey anti-Mouse IgG, Alexa Fluor 555 (Invitrogen, A31570) (1:1000 dilution) for 1 hour at room temperature in the dark. Subsequently cell plates were washed with 1×PBS three times and can be stored at 4° C. if not being proceeding with imaging procedure.
Images were acquired with 20× objective (ImageXpress MicroConfocal, Molecular Devices) creating z-series of 5 planes (5 steps, […]), 16 tiles per well. Images were then analyzed using a custom CellProfiler protocol to obtain mean vesicle size. The mean vesicle size from 16 images was used as the output for each well. The mean vesicle size from 0.5% DMSO treated condition was considered as having no Pikfyve inhibition activity and the 3 μM Apilimod treated condition was considered as having 100% inhibition activity. The mean vesicle size was converted to % inhibition activity and the data was fitted to a dose-response curve using log(inhibitor) vs normalized response-variable slope using GraphPad Prism.

T1 sequence (Q9Y2I7 whole entry): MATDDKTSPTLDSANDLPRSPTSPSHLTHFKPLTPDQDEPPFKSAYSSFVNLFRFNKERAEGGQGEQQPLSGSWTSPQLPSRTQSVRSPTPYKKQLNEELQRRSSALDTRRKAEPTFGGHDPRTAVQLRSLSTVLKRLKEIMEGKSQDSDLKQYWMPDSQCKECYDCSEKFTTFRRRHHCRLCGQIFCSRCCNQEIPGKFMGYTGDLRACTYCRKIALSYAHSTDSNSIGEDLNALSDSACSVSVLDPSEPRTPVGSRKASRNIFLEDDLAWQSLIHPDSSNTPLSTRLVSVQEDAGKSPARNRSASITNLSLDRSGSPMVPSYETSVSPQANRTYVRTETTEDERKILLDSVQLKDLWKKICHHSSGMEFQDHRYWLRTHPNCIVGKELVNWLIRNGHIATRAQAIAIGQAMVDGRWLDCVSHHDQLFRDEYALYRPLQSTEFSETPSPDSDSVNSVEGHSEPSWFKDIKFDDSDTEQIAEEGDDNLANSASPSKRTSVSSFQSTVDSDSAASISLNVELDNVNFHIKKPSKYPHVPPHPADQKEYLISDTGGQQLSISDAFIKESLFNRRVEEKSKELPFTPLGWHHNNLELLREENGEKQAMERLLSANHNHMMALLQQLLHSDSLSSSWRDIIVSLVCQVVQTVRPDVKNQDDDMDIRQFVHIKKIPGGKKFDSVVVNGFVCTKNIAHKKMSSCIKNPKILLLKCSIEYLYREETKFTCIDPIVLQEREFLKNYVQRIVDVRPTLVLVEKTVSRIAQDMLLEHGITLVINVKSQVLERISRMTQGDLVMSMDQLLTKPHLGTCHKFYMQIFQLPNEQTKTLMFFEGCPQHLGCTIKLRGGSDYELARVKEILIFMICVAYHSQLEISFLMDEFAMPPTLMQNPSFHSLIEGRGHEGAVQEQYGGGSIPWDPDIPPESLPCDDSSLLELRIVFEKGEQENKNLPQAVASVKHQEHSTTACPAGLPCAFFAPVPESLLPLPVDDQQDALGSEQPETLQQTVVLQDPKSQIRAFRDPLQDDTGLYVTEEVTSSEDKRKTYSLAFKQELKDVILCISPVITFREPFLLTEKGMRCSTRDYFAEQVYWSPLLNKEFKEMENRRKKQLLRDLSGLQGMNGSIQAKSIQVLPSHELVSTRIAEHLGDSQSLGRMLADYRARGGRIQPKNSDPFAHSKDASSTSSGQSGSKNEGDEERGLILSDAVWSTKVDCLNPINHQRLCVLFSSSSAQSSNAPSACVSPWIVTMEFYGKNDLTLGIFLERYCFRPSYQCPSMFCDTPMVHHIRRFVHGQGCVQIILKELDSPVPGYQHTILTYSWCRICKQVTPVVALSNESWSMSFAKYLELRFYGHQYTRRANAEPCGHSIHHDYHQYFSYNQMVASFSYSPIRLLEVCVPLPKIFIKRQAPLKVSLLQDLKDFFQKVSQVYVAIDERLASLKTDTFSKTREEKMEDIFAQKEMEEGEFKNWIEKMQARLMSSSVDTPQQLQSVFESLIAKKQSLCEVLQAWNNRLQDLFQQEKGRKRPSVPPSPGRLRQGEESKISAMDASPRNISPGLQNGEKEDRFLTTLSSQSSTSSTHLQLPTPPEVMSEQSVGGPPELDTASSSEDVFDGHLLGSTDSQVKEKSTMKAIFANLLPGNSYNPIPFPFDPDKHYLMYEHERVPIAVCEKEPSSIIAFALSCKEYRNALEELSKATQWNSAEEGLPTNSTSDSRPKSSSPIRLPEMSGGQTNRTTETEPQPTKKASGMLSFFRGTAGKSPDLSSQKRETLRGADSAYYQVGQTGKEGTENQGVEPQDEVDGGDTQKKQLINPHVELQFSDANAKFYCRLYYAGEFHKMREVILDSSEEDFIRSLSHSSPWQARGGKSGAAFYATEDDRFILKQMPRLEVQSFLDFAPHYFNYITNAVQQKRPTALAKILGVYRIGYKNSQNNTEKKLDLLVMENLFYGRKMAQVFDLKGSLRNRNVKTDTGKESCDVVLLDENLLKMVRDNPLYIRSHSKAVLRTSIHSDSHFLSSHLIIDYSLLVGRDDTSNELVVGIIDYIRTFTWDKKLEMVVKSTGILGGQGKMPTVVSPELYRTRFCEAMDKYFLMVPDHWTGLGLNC

SMILES	IC50 (PIKFYVE [1]; Table 3)	EC50 (PIKFYVE [2])	IC50 (PIKFYVE [1]; Table 2)
Cn1cc(CCOc2nc(N3CCOCC3)cc(-n3ccc(C(=O)N4CCCCC4)n3)n2)cn1 [Compound 172, (1-(2-(2-(1-methyl-1H-pyrazol-4-yl)ethoxy)-6-morpholinopyrimidin-4-yl)-1H-pyrazol-3-yl)(piperidin-1-yl)methanone]	100 to 5000 nM	> 5000 nM	–
Cc1cccc(-c2ccn(-c3cc(N4CCOCC4)nc(OCCc4cnn(CCO)c4)n3)n2)c1 [Compound 180, 2-(4-(2-((4-morpholino-6-(3-(m-tolyl)-1H-pyrazol-1-yl)pyrimidin-2-yl)oxy)ethyl)-1H-pyrazol-1-yl)ethan-1-ol]	< 3 nM	20 to 100 nM	–
Cc1cccc(-c2ccn(-c3cc(N4CCOCC4)nc(OCc4cn[nH]c4)n3)n2)c1 [Compound 120, 4-(2-((1H-pyrazol-4-yl)methoxy)-6-(3-(m-tolyl)-1H-pyrazol-1-yl)pyrimidin-4-yl)morpholine]	10 to 100 nM	100 to 500 nM	–
Cc1cccc(-c2ccn(-c3cc(N4CCOCC4)nc(OCCc4cnccn4)n3)n2)c1 [Compound 94, 4-(2-(2-(pyrazin-2-yl)ethoxy)-6-(3-(m-tolyl)-1H-pyrazol-1-yl)pyrimidin-4-yl)morpholine]	< 3 nM	< 20 nM	–
Cc1cccc(-c2ccn(-c3cc(N4CCOCC4)nc(C4CCOCC4)n3)n2)c1 [Compound 326, 4-(2-(tetrahydro-2H-pyran-4-yl)-6-(3-(m-tolyl)-1H-pyrazol-1-yl)pyrimidin-4-yl)morpholine]	10 to 100 nM	500 to 5000 nM	–
Cc1cccc(-c2ccn(-c3cc(N4CCOCC4)n4nc(C)cc4n3)n2)c1 [Compound 336, 4-(2-methyl-5-(3-(m-tolyl)-1H-pyrazol-1-yl)pyrazolo[1,5-a]pyrimidin-7-yl)morpholine]	10 to 100 nM	500 to 5000 nM	–
Cc1cccc(-c2ccn(-c3cc(N4CCOCC4)nc(OCCCc4ccco4)n3)n2)c1 [Compound 112, 4-(2-(3-(furan-2-yl)propoxy)-6-(3-(m-tolyl)-1H-pyrazol-1-yl)pyrimidin-4-yl)morpholine]	10 to 100 nM	500 to 5000 nM	–
Cc1cccc(-c2ccn(-c3cc(N4CCOCC4)nc([C@@H]4CCCO4)n3)n2)c1 (single isomer, unassigned) [Compound 328]	3 to 10 nM	> 5000 nM	–
Cn1cc(CCOc2nc(N3CCOCC3)cc(-n3ccc(-c4cccc(CO)c4)n3)n2)cn1 [Compound 179, (3-(1-(2-(2-(1-methyl-1H-pyrazol-4-yl)ethoxy)-6-morpholinopyrimidin-4-yl)-1H-pyrazol-3-yl)phenyl)methanol]	< 3 nM	< 20 nM	–
Cc1cccc(-c2cc(N3CCOCC3)n(-c3cc(N4CCOCC4)nc(OCCc4cnn(C)c4)n3)n2)c1 [Compound 237, 4-(2-(2-(1-methyl-1H-pyrazol-4-yl)ethoxy)-6-(5-morpholino-3-(m-tolyl)-1H-pyrazol-1-yl)pyrimidin-4-yl)morpholine]	< 3 nM	< 20 nM	–
Cn1cc(CCOc2nc(N3CCOCC3)cc(-n3ccc(-c4ccncc4)n3)n2)cn1 [Compound 191, 4-(2-(2-(1-methyl-1H-pyrazol-4-yl)ethoxy)-6-(3-(pyridin-4-yl)-1H-pyrazol-1-yl)pyrimidin-4-yl)morpholine]	10 to 100 nM	> 5000 nM	–
CCCc1ccn(-c2cc(N3CCOCC3)nc(OCCc3cnn(C)c3)n2)n1 [Compound 124, 4-(2-(2-(1-methyl-1H-pyrazol-4-yl)ethoxy)-6-(3-propyl-1H-pyrazol-1-yl)pyrimidin-4-yl)morpholine]	> 5000 nM	> 5000 nM	–

The remaining lines, values ahead:

IC50 (PIKFYVE [1]; Table 3)	EC50 (PIKFYVE [2])	IC50 (PIKFYVE [1]; Table 2)	SMILES
3 to 10 nM	100 to 500 nM	–	COCC(O)c1nc(N2CCOCC2)cc(-n2ccc(-c3cccc(C)c3)n2)n1 (stereo not shown) [Compound 155, 2-methoxy-1-(4-morpholino-6-(3-(m-tolyl)-1H-pyrazol-1-yl)pyrimidin-2-yl)ethan-1-ol]
10 to 100 nM	500 to 5000 nM	–	Cc1cccc(-c2ccn(-c3cc(N4CCOCC4)nc(N(C)C)n3)n2)c1 [Compound 107, N,N-dimethyl-4-morpholino-6-(3-(m-tolyl)-1H-pyrazol-1-yl)pyrimidin-2-amine]
3 to 10 nM	100 to 500 nM	–	COC(CO)c1nc(N2CCOCC2)cc(-n2ccc(-c3cccc(C)c3)n2)n1 (racemic) [Compound 156, 2-methoxy-2-(4-morpholino-6-(3-(m-tolyl)-1H-pyrazol-1-yl)pyrimidin-2-yl)ethan-1-ol]
< 3 nM	< 20 nM	–	CO[C@H](CO)c1nc(N2CCOCC2)cc(-n2ccc(-c3c[nH]c4ccccc34)n2)n1 (single isomer, unassigned) [Compound 318]
–	500 to 5000 nM	5 to 100 nM	Cc1cccc(-c2ccn(-c3cc(N4CCOCC4)nc(C(F)(F)F)n3)n2)c1 [Compound 82]
–	20 to 100 nM	< 5 nM	Cc1cccc(-c2ccn(-c3cc(N4CCOCC4)nc(OC[C@H](O)c4ccccc4)n3)n2)c1 (single isomer, unassigned) [Compound 58]
< 3 nM	100 to 500 nM	–	Cc1cccc(-c2ccn(-c3cc(N4CCOCC4)nc(OCC4(C)COC4)n3)n2)c1 [Compound 176, 4-(2-((3-methyloxetan-3-yl)methoxy)-6-(3-(m-tolyl)-1H-pyrazol-1-yl)pyrimidin-4-yl)morpholine]
< 3 nM	100 to 500 nM	–	COC(C)(CO)c1nc(N2CCOCC2)cc(-n2ccc(-c3cccc(C)c3)n2)n1 (stereo not shown) [Compound 227, 2-methoxy-2-(4-morpholino-6-(3-(m-tolyl)-1H-pyrazol-1-yl)pyrimidin-2-yl)propan-1-ol]
< 3 nM	100 to 500 nM	–	Cc1cccc(-c2ccn(-c3cc(N4CCOCC4)nc(NC(=O)Cc4cnn(C)c4)n3)n2)c1 [Compound 186, 2-(1-methyl-1H-pyrazol-4-yl)-N-(4-morpholino-6-(3-(m-tolyl)-1H-pyrazol-1-yl)pyrimidin-2-yl)acetamide]
10 to 100 nM	100 to 500 nM	–	COc1cccc(-c2ccn(-c3cc(N4CCOCC4)nc([C@@H](CO)OC)n3)n2)c1 [Compound 262, (S)-2-methoxy-2-(4-(3-(3-methoxyphenyl)-1H-pyrazol-1-yl)-6-morpholinopyrimidin-2-yl)ethan-1-ol]
< 3 nM	100 to 500 nM	–	Cn1ccc(COc2nc(N3CCOCC3)cc(-n3ccc(-c4ccccc4)n3)n2)n1 [Compound 115, 4-(2-((1-methyl-1H-pyrazol-3-yl)methoxy)-6-(3-phenyl-1H-pyrazol-1-yl)pyrimidin-4-yl)morpholine]
10 to 100 nM	> 5000 nM	–	Cc1cc(-c2cccc3c2OCCN3)nn1-c1cc(N2CCOCC2)nc(OCCc2cnn(C)c2)n1 [Compound 245, 8-(5-methyl-1-(2-(2-(1-methyl-1H-pyrazol-4-yl)ethoxy)-6-morpholinopyrimidin-4-yl)-1H-pyrazol-3-yl)-3,4-dihydro-2H-benzo[b][1,4]oxazine]
10 to 100 nM	100 to 500 nM	–	Cc1cccc(-c2ccn(-c3cc(N4CCOCC4)nc(OCCOc4ccccc4)n3)n2)c1 [Compound 93, 4-(2-(2-phenoxyethoxy)-6-(3-(m-tolyl)-1H-pyrazol-1-yl)pyrimidin-4-yl)morpholine]
< 3 nM	20 to 100 nM	–	Cn1cc(CCOc2nc(N3CCOCC3)cc(-n3nc(-c4ccccc4)cc3C3CC3)n2)cn1 [Compound 216, 4-(6-(5-cyclopropyl-3-phenyl-1H-pyrazol-1-yl)-2-(2-(1-methyl-1H-pyrazol-4-yl)ethoxy)pyrimidin-4-yl)morpholine]
–	20 to 100 nM	< 5 nM	Cc1cccc(-c2cc(CN(C)C)n(-c3cc(N4CCOCC4)nc(OCCc4cnn(C)c4)n3)n2)c1 [Compound 86, N,N-dimethyl-1-(1-(2-(2-(1-methyl-1H-pyrazol-4-yl)ethoxy)-6-morpholinopyrimidin-4-yl)-3-(m-tolyl)-1H-pyrazol-5-yl)methanamine]
10 to 100 nM	500 to 5000 nM	–	CO[C@@H](CO)c1nc(N2CCOCC2)cc(-n2nc(-c3ccccc3)cc2C)n1 [Compound 204, (R)-2-methoxy-2-(4-(5-methyl-3-phenyl-1H-pyrazol-1-yl)-6-morpholinopyrimidin-2-yl)ethan-1-ol]
10 to 100 nM	500 to 5000 nM	–	CO[C@H](CO)c1nc(N2CCOCC2)cc(-n2ccc(-c3cccc4[nH]ccc34)n2)n1 [Compound 268, (S)-2-(4-(3-(1H-indol-4-yl)-1H-pyrazol-1-yl)-6-morpholinopyrimidin-2-yl)-2-methoxyethan-1-ol]
